One assay concerns DLD1 wild type. The experiment in a line: Cell viability assay (CTG assay), DLD1 wild type cells. In kind it is cell-based. The following applies: Homo sapiens, DLD-1, 240 h; CellTiter Glo, read on Day 10, initial concentration 30 µM. How it is done: (§1) 2. Cell Viability Assay of Pol θ Inhibitor
(§2) The cell viability assay, i.e., the commonly used CTG assay, was conducted for the efficacy of the inhibitor in vitro using the CellTiter Glo reagent (Promega, G7573).

For assay [1], the target named is helicase domain of the Pol θ protein (Homo sapiens, UniProt O75417). In kind it is biochemical.
Chain of helicase domain of the Pol θ protein (O75417 102-554 limits assumed): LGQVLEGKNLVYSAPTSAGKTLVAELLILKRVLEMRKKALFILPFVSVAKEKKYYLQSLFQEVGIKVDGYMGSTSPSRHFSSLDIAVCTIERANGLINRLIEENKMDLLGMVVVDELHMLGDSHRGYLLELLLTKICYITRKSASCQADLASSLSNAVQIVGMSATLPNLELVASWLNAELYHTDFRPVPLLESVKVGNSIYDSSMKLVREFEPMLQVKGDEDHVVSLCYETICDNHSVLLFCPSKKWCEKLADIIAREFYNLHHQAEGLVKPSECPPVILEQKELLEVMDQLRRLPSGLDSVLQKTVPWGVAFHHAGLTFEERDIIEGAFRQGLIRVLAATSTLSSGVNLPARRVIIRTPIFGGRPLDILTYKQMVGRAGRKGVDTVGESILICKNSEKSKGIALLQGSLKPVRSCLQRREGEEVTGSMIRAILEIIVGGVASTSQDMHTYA
Experimental: Biochemical Activity Assay (ADP Glo Assay) of Pol θ Inhibitor
The specific assay method was as follows: • 1) The helicase domain of the Pol θ protein was purified by an insect system, to obtain the protein with a purity of >90%. ssDNA (5'-[sequence]-3', Hangzhou Yocon Biotechnology Co., Ltd.) was ordered as the substrate for the Pol θ protein; and a reaction buffer containing 10 mM DTT (Dithiothreitol), 20 mM MgCl2 and Tris-HCl pH 7.5 was prepared. • 2) The 2x ssDNA-Pol θ premix was prepared; the reaction was conducted in a 384-well plate; a control group with only buffer is set, and the premix was added to the rest of the groups.
A further assay concerns DLD1 BRCA2-/- cells. The experiment in a line: Cell viability assay (CTG assay), DLD1 BRCA2-/- cells. In kind it is cell-based. Conditions: Homo sapiens, DLD-1, 240 h; CellTiter Glo, read on Day 10, initial concentration 30 µM. How it is done: as §1, §2
A general note: In ATP-based viability assays light output follows the ATP content of the culture.

Where [2] appears, read: ATPase activity, ADP-Glo, ssDNA substrate, 60 min at room temperature, initial concentration 10 µM, read-out: Biochemical experiment IC50.

Read-outs that look alike come from different tables or passages of the source.

Take `COc1cnc(C(F)F)cc1-c1cc(-n2cccc(F)c2=O)ncc1C(=O)Nc1nc(N2CC3(COC3)C2)ns1` [Example 25, N-(3-(2-oxa-6-azaspiro[3.3]heptan-6-yl)-1,2,4-thiadiazol-5-yl)-2"-(difluoromethyl)-3-fluoro-5"-methoxy-2-oxo-2H-[1,2':4',4"-bipyridin]-5'-carboxamide]: the IC50 in the assay on DLD1 wild type was greater than 5000 nM; in assay [1], 42.3 nM; in the assay with DLD1 BRCA2-/- cells, 242 nM.

In the case of `COc1cnc(C(F)F)cc1-c1cc(-n2cccc(F)c2=O)ncc1C(=O)Nc1nccs1` [Example 4, 2"-(difluoromethyl)-3-fluoro-5"-methoxy-2-oxo-N-(thiazol-2-yl)-2H-[1,2':4',4"-terpyridine]-5'-carboxamide], the values for the IC50 (with DLD1 wild type; in assay [1] (setting [2]); in the assay on DLD1 BRCA2-/- cells) were greater than 50000 nM, 20.9 nM and 43 nM, respectively.

Consider `COc1cnc(C(F)F)cc1-c1cc(-n2cccc(F)c2=O)ncc1C(=O)Nc1nc(-c2ccc(F)cc2)ns1` [Example 12, 2"-(difluoromethyl)-3-fluoro-N-(3-(4-fluorophenyl)-1,2,4-thiadiazol-5-yl)-5"-methoxy-2-oxo-2H-[1,2':4',4"-terpyridine]-5'-carboxamide], for which the half-maximal inhibitory concentration (IC50) was 23300 nM with DLD1 wild type and 25.1 nM in the assay with DLD1 BRCA2-/- cells.

In the case of `COc1cnc(C(F)F)cc1-c1cc(-n2cccc(F)c2=O)ncc1C(=O)Nc1nc(N2CC3CC(C2)N3)ns1` [Example 27, N-(3-(3,6-diazabicyclo[3.1.1]heptan-3-yl)-1,2,4-thiadiazol-5-yl)-2"-(difluoromethyl)-3-fluoro-5"-methoxy-2-oxo-2H-[1,2':4',4"-terpyridin]-5'-carboxamide], the figures for the IC50 (in the assay with DLD1 wild type; in assay [1] (setting [2])) were greater than 5000 nM and 158 nM, respectively.

Regarding `COc1cnc(Cl)cc1-c1cc(-n2cccc(F)c2=O)ncc1C(=O)Nc1nc(C2CC2)ns1` [Example 21, 2"-chloro-N-(3-cyclopropyl-1,2,4-thiadiazol-5-yl)-3-fluoro-5"-methoxy-2-oxo-2H-[1,2':4',4"-terpyridine]-5'-carboxamide], the half-maximal inhibitory concentration (IC50) in the assay with DLD1 wild type is greater than 5000 nM; in assay [1] (setting [2]), 8.57 nM; in the assay with DLD1 BRCA2-/- cells, 7.64 nM.

Consider `COc1cnc(C(F)F)cc1-c1cc(-n2cccc(F)c2=O)ncc1C(=O)Nc1nc(-c2ccccc2)ns1` [Example 9, 2"-(difluoromethyl)-3-fluoro-5"-methoxy-2-oxo-N-(3-phenyl-1,2,4-thiadiazol-5-yl)-2H-[1,2':4',4"-terpyridine]-5'-carboxamide], for which the IC50 was greater than 50000 nM in the assay with DLD1 wild type, 13.4 nM in assay [1] (setting [2]) and 32.9 nM in the assay with DLD1 BRCA2-/- cells.

For `COc1cnc(C(F)F)cc1-c1cc(-n2cccc(F)c2=O)ncc1C(=O)Nc1nc(N2CC3CC(C2)N3C)ns1` [Example 29, 2"-(difluoromethyl)-3-fluoro-5"-methoxy-N-(3-(6-methyl-3,6-diazabicyclo[3.1.1]heptan-3-yl)-1,2,4-thiadiazol-5-y)-2-oxo-2H-[1,2':4',4"-terpyridin]-5'-carboxamide], the IC50 was greater than 5000 nM with DLD1 wild type and 244 nM in assay [1].

As to `COc1cnc(Cl)cc1-c1cc(C)ncc1C(=O)Nc1nc(C2CC2)ns1` [Example 5, 2'-chloro-N-(3-cyclopropyl-1,2,4-thiadiazol-5-yl)-5'-methoxy-6-methyl-[4,4'-bipyridine]-3-carboxamide], the IC50 is greater than 50000 nM with DLD1 wild type and 132 nM in assay [1] (setting [2]).

Regarding `COc1cnc(C(F)F)cc1-c1cc(-n2cccc(F)c2=O)ncc1C(=O)Nc1nc(-c2cnccn2)ns1` [Example 19, 2"-(difluoromethyl)-3-fluoro-5"-methoxy-2-oxo-N-(3-(pyrazin-2-yl)-1,2,4-thiadiazol-5-yl)-2H-[1,2':4',4"-terpyridine]-5'-carboxamide], the IC50 in the assay with DLD1 wild type was greater than 5000 nM; in assay [1] (setting [2]), 32.1 nM; with DLD1 BRCA2-/- cells it was 56.2 nM.

Consider `COc1cnc(C(F)F)cc1-c1cc(-n2cccc(F)c2=O)ncc1C(=O)Nc1nc(-c2c(C)noc2C)ns1` [Example 22, 2"-(difluoromethyl)-N-(3-(3,5-dimethylisoxazol-4-yl)-1,2,4-thiadiazol-5-yl)-3-fluoro-5"-methoxy-2-oxo-2H-[1,2':4',4"-terpyridine]-5'-carboxamide], for which the 50% inhibitory concentration (IC50) is greater than 5000 nM with DLD1 wild type, 3.41 nM in assay [1] (setting [2]) and 5.01 nM with DLD1 BRCA2-/- cells.

Turning to `COc1cnc(C(F)F)cc1-c1cc(-n2cccc(F)c2=O)ncc1C(=O)Nc1nc(N2CC3CC3C2)ns1` (stereo not drawn) [Example 28, N-(3-(3-azabicyclo[3,1,0]hex-3-yl)-1,2,4-thiadiazol-5-yl)-2"-(difluoromethyl)-3-fluoro-5"-methoxy-2-oxo-2H-[1,2':4',4"-terpyridin]-5'-carboxamide], the IC50 with DLD1 wild type is greater than 5000 nM; in assay [1] (setting [2]) it was 11 nM; in the assay on DLD1 BRCA2-/- cells, 24.2 nM.

Take `COc1cnc(C(F)F)cc1-c1cc(-n2cccc(F)c2=O)ncc1C(=O)Nc1nc(N)ns1` [Example 30, N-(3-amino-1,2,4-thiadiazol-5-yl)-2"-(difluoromethyl)-3-fluoro-5"-methoxy-2-oxo-2H-[1,2':4',4"-terpyridin]-5'-carboxamide]: the IC50 is greater than 5000 nM with DLD1 wild type and 34.1 nM in assay [1] (setting [2]).

As to `COc1cnc(C(F)F)cc1-c1cc(-n2cccc(F)c2=O)ncc1C(=O)Nc1nc(N2CCOCC2)ns1` [Example 24], the IC50 in the assay on DLD1 wild type was greater than 5000 nM; in assay [1] it was 20.3 nM; in the assay with DLD1 BRCA2-/- cells, 15.3 nM.

`COc1cnc(C(F)F)cc1-c1cc(-n2cccc(F)c2=O)ncc1C(=O)Nc1ncns1` [Example 10, 2"-(difluoromethyl)-3-fluoro-5"-methoxy-2-oxo-N-(1,2,4-thiadiazol-5-yl)-2H-[1,2':4',4''-terpyridine]-5'-carboxamide]: the IC50 is greater than 50000 nM in the assay with DLD1 wild type, 5.81 nM in assay [1] (setting [2]) and 89.1 nM in the assay with DLD1 BRCA2-/- cells.

On to `COc1nsc(NC(=O)c2cnc(-n3cccc(F)c3=O)cc2-c2cc(C(F)F)ncc2OC)n1` [Example 7, 2"-(difluoromethyl)-3-fluoro-5"-methoxy-N-(3-methoxy-1,2,4-thiadiazol-5-yl)-2-oxo-2H-[1,2':4',4"-terpyridine]-5'-carboxamide], for which the half-inhibitory concentration (IC50) with DLD1 wild type is greater than 50000 nM; in assay [1] (setting [2]) it was 4.02 nM; in the assay with DLD1 BRCA2-/- cells, 56.2 nM.

As for `COc1cnc(C(F)F)cc1-c1cc(-n2cccc(F)c2=O)ncc1C(=O)Nc1nc(-c2ccc(Cl)cc2)ns1` [Example 23], the results for the IC50 (in the assay on DLD1 wild type; in assay [1]; in the assay on DLD1 BRCA2-/- cells) were greater than 50000 nM, 170 nM and 185 nM, respectively.

For the compound `COc1cnc(C(F)F)cc1-c1cc(-n2cccc(F)c2=O)ncc1C(=O)Nc1nc(-c2ccncc2)cs1` [Example 2, 2"-(difluoromethyl)-3-fluoro-5"-methoxy-2-oxo-N-(4-(pyridin-4-yl)thiazol-2-yl)-2H-[1,2':4',4"-terpyridine]-5'-carboxamide], the IC50 in the assay with DLD1 wild type was greater than 50000 nM; in assay [1] (setting [2]), 5.58 nM; in the assay with DLD1 BRCA2-/- cells, 41.2 nM.

`CCCc1nsc(NC(=O)c2cnc(-n3cccc(F)c3=O)cc2-c2cc(C(F)F)ncc2OC)n1` [Example 16, 2"-(difluoromethyl)-3-fluoro-5"-methoxy-2-oxo-N-(3-propyl-1,2,4-thiadiazol-5-yl)-2H-[1,2':4',4"-terpyridine]-5'-carboxamide]: the results for the IC50 (in the assay with DLD1 wild type; in assay [1] (setting [2]); with DLD1 BRCA2-/- cells) were greater than 5000 nM, 9.69 nM and 10 nM, respectively.

Turning to `COc1cnc(C(F)F)cc1-c1cc(-n2cccc(F)c2=O)ncc1C(=O)Nc1nc(C2CC2)cs1` [Example 3, N-(4-cyclopropylthiazol-2-yl)-2"-(difluoromethyl)-3-fluoro-5"-methoxy-2-oxo-2H-[1,2':4',4"-terpyridine]-5'-carboxamide], the half-maximal inhibitory concentration (IC50) with DLD1 wild type is greater than 50000 nM; in assay [1] (setting [2]), 10.3 nM; in the assay with DLD1 BRCA2-/- cells it was 79.4 nM.

Turning to `COc1cnc(C(F)F)cc1-c1cc(-n2cccc(F)c2=O)ncc1C(=O)Nc1nc(C(C)(C)C)ns1` [Example 6, N-(3-(tert-butyl)-1,2,4-thiadiazol-5-yl)-2"-(difluoromethyl)-3-fluoro-5"-methoxy-2-oxo-2H-[1,2':4',4"-terpyridine]-5'-carboxamide], the IC50 in the assay on DLD1 wild type was greater than 50000 nM; in assay [1] (setting [2]) it was 15.2 nM; in the assay with DLD1 BRCA2-/- cells it was 52.1 nM.

Take `COc1cnc(C(F)F)cc1-c1cc(-n2cccc(F)c2=O)ncc1C(=O)Nc1nc(-c2c(C)cnn2C)ns1` [Example 14, 2"-(difluoromethyl)-N-(3-(1,4-dimethyl-1H-pyrazol-5-yl)-1,2,4-thiadiazol-5-yl)-3-fluoro-5"-methoxy-2-oxo-2H-[1,2':4',4"-terpyridine]-5'-carboxamide]: the IC50 in the assay on DLD1 wild type was greater than 50000 nM; in assay [1] (setting [2]) it was 3.63 nM; with DLD1 BRCA2-/- cells, 4.82 nM.

For the compound `COc1cnc(C(F)F)cc1-c1cc(-n2cccc(F)c2=O)ncc1C(=O)Nc1nc(NC(C)=O)ns1` [Example 31, N-(3-acetamino-1,2,4-thiadiazol-5-yl)-2"-(difluoromethyl)-3-fluoro-5"-methoxy-2-oxo-2H-[1,2':4',4"-terpyridin]-5'-carboxamide], the IC50 with DLD1 wild type is greater than 5000 nM; in assay [1] (setting [2]), 14.4 nM.

Turning to `COc1cnc(C(F)F)cc1-c1cc(-n2cccc(F)c2=O)ncc1C(=O)Nc1nc(C(C)C)ns1` [Example 17, 2"-(difluoromethyl)-3-fluoro-N-(3-isopropyl-1,2,4-thiadiazol-5-yl)-5"-methoxy-2-oxo-2H-[1,2':4',4"-terpyridine]-5'-carboxamide], the IC50 with DLD1 wild type was greater than 5000 nM; in assay [1] (setting [2]) it was 8.98 nM; in the assay with DLD1 BRCA2-/- cells it was 3.98 nM.

In the case of `COc1cnc(C(F)F)cc1-c1cc(-n2cccc(F)c2=O)ncc1C(=O)Nc1nc(C2CC2)ns1` [Example 1, N-(3-cyclopropyl-1,2,4-thiadiazol-5-yl)-2"-difluoromethyl-3-fluoro-5"-methoxy-2-oxo-2H-[1,2':4',4"-tripyridin]-5'-carboxamide], the half-maximal inhibitory concentration (IC50) in the assay with DLD1 wild type is greater than 50000 nM; in assay [1], 6.92 nM; in the assay with DLD1 BRCA2-/- cells it was 48.2 nM.

A word on the IC50: it is the midpoint of a concentration-inhibition curve.

Values taken from patent EP4741390A1, “BIARYL RING COMPOUND, INTERMEDIATE THEREOF, PREPARATION METHOD THEREFOR AND USE THEREOF” (Hangzhou Synrx Therapeutics Biomedical Technology Co., Ltd., priority 2023, dated 2025).
